Experimental data as given in BigSolDB 2.1.

O=S(=O)([O-])c1cccc2ccccc12.[Na+]
solubility (mole fraction)
Settings | 278.15 K | 283.15 K | 288.15 K | 293.15 K | 298.15 K | 303.15 K | 308.15 K | 313.15 K | 318.15 K | 323.15 K
in 1,4-dioxane | 0.0004 | 0.000497 | 0.000602 | 0.000722 | 0.000842 | 0.00101 | 0.00121 | 0.00143 | 0.00169 | 0.00203
in acetone | 9.36e-05 | 0.000122 | 0.000156 | 0.000197 | 0.00024 | 0.000288 | 0.000351 | 0.000417 | 0.000501 | 0.0006
in cyclohexanone | 0.000222 | 0.000299 | 0.00038 | 0.000481 | 0.000603 | 0.000743 | 0.0009 | 0.00108 | 0.00127 | 0.00152
in ethanol | 0.000297 | 0.000386 | 0.000513 | 0.000668 | 0.000829 | 0.00106 | 0.00132 | 0.00167 | 0.00217 | 0.00277
in ethyl acetate | 4.49e-05 | 5.77e-05 | 7.34e-05 | 9.37e-05 | 0.000119 | 0.000148 | 0.000184 | 0.000227 | 0.000269 | 0.000311
in isopropanol | 0.000108 | 0.000145 | 0.000204 | 0.000275 | 0.000351 | 0.000458 | 0.000588 | 0.000727 | 0.000886 | 0.00109
